Common to all, as to format: in vivo
The test system of test [1] is Amaranthus retroflexus (AMARE). The test is described as follows: Post-emergence biological efficacy, glasshouse, 500 or 1000 g/ha, evaluated after 13 days (100=total damage to plant; 0=no damage to plant). The note with it: Amaranthus retroflexus, 312 h, rate 1,000 g/ha, read-out: Percentage damage caused to weed species, post-emergence, AMARE. As for the experimental part:
(§1) Seeds of Alopecurus myosuroides (ALOMY), Setaria faberi (SETFA), Echinochloa […]), Solanum nigrum (SOLNI), Amaranthus retroflexus (AMARE) and Ipomoea hederaceae (IPOHE) were sown in standard soil in pots. […] The test plants were then grown on under controlled conditions in a glasshouse (at 24/16° C., day/night; 14 hours light; 65% humidity) and watered twice daily. […]

The subject of test [2] is Ipomoea hederaceae (IPOHE). The description is as above. The note with it: Ipomoea, 312 h, rate 1,000 g/ha, read-out: Percentage damage caused to weed species, post-emergence, IPOHE. As for the experimental part: as §1
The subject of test [3] is Alopecurus myosuroides (ALOMY). The test is described as above. The following applies: Alopecurus myosuroides, 312 h, rate 1,000 g/ha, read-out: Percentage damage caused to weed species, post-emergence, ALOMY. Here is the method:
as §1

The test system of test [4] is Echinochloa crusgaffi (ECHCG). Described as above. The note with it: Echinochloa, 312 h, rate 1,000 g/ha, read-out: Percentage damage caused to weed species, post-emergence, ECHCG. Here is the method:
as §1

Test [5] concerns Solanum nigrum (SOLNI). The test is described as above. The following applies: Solanum nigrum, 312 h, rate 1,000 g/ha, read-out: Percentage damage caused to weed species, post-emergence, SOLNI. Here is the method:
as §1

For test [6], the system named is Setaria faberi (SETFA). The description is as above. The following applies: Setaria faberi, 312 h, rate 1,000 g/ha, read-out: Percentage damage caused to weed species, post-emergence, SETFA. Here is the method: as §1
Test [7] deals with Echinochloa crus-galli (ECHCG). The test is described as follows: Pre-emergence biological efficacy, glasshouse, 1000 g/ha, evaluated after 13 days (100=total damage to plant; 0=no damage to plant). The following applies: Echinochloa crus-galli, 312 h, rate 1,000 g/ha, read-out: Percentage damage caused to weed species, pre-emergence, ECHCG. As for the experimental part: (§2) Seeds of Alopecurus myosuroides (ALOMY), Setaria faberi (SETFA), Echinochloa crus-galli (ECHCG), Solanum nigrum (SOLNI), Amaranthus retroflexus (AMARE) and Ipomoea hederaceae (IPOHE) were sown in standard soil in pots. […] The test plants were then grown under controlled conditions in the glasshouse (at 24/16° C., day/night; 14 hours light; 65% humidity) and watered twice daily. […]

In test [8] the test system is Amaranthus retroflexus (AMARE). Described as above. The note with it: Amaranthus retroflexus, 312 h, rate 1,000 g/ha, read-out: Percentage damage caused to weed species, pre-emergence, AMARE. Here is the method: as §2
For test [9], the system named is Ipomoea hederaceae (IPOHE). The description is as above. The note with it: Ipomoea, 312 h, rate 1,000 g/ha, read-out: Percentage damage caused to weed species, pre-emergence, IPOHE. As for the experimental part: as §2
For test [10], the system named is Alopecurus myosuroides (ALOMY). The description is as above. The following applies: Alopecurus myosuroides, 312 h, rate 1,000 g/ha, read-out: Percentage damage caused to weed species, pre-emergence, ALOMY. Here is the method:
as §2

For test [11], the system named is Solanum nigrum (SOLNI). The test is described as above. The note with it: Solanum nigrum, 312 h, rate 1,000 g/ha, read-out: Percentage damage caused to weed species, pre-emergence, SOLNI. Here is the method: as §2
For test [12], the system named is Setaria faberi (SETFA). Described as above. The following applies: Setaria faberi, 312 h, rate 1,000 g/ha, read-out: Percentage damage caused to weed species, pre-emergence, SETFA. As for the experimental part: as §2

As to `COC(=O)c1nc(C2CC2)nc2[nH]cc(C)c12` [Compound 1-4, 2-Cyclopropyl-4-methoxycarbonyl-5-methyl-7H-pyrrolo[2,3-d]pyrimidine], the pest or weed control at 1000 g/ha was 100% in [1]; 70% in [2]; 10% in [3]; 70% in [4]; 90% with Solanum nigrum (SOLNI) [5]; 80% in the test with Setaria faberi (SETFA) [6]. Also, the pest or weed control at 1000 g/ha in test [7] stood at 30%; in [8], 90%; in test [9], 60%; in [10], 10%; in the test with Solanum nigrum (SOLNI) [11], 90%; in the test on Setaria faberi (SETFA) [12] it was 30%.
As to `COC(=O)c1nc(C2CC2)nc2[nH]c(C)cc12` [Compound 1-6, 2-cyclopropyl-4-methoxycarbonyl-6-methyl-7H-pyrrolo[2,3-d]pyrimidine], the pest or weed control at 1000 g/ha (in test [1]; in [2]; in test [3]; in test [4]; in the test with Solanum nigrum (SOLNI) [5]; in the test on Setaria faberi (SETFA) [6]) was 0% throughout. The pest or weed control at 1000 g/ha (in test [7]; in test [8]; in test [9]; in [10]; in the test with Solanum nigrum (SOLNI) [11]; in the test on Setaria faberi (SETFA) [12]) was 0% in each case.
In the case of `COC(=O)c1nc(-c2ccc(Cl)c(F)c2)nc2[nH]cc(C)c12` [Compound 1-20, 2-(4-Chloro-3-fluorophenyl)-4-methoxycarbonyl-5-methyl-7H-pyrrolo[2,3-d]pyrimidine], the pest or weed control at 1000 g/ha in test [1] was 70%; in [2], 60%; in [3], 0%; in test [4] it was 0%; with Solanum nigrum (SOLNI) [5], 70%; in the test on Setaria faberi (SETFA) [6] it was 0%. For the same compound, the pest or weed control at 1000 g/ha came out at 0% in test [7]; 50% in test [8]; 0% in test [9]; 0% in test [10]; 0% in the test with Solanum nigrum (SOLNI) [11]; 0% with Setaria faberi (SETFA) [12].
Turning to `COC(=O)c1nc(-c2ccc(Cl)c(F)c2)nc2[nH]c(C)cc12` [Compound 1-22, 2-(4-Chloro-3-fluorophenyl)-4-methoxycarbonyl-6-methyl-7H-pyrrolo[2,3-d]pyrimidine], the pest or weed control at 1000 g/ha in test [1] was found to be 20%; in test [2], 40%; in [3] it was 10%; in test [4], 0%; in the test on Solanum nigrum (SOLNI) [5] it was 30%; in the test with Setaria faberi (SETFA) [6], 10%. The pest or weed control at 1000 g/ha (in [7]; in [8]; in [9]; in [10]; in the test with Solanum nigrum (SOLNI) [11]; in the test on Setaria faberi (SETFA) [12]) was 0% throughout.
Consider `COC(=O)c1nc(-c2ccc(Cl)c(F)c2)nc2[nH]c(C)c(C)c12` [Compound 1-24, 2-(4-chloro-3-fluorophenyl)-5,6-dimethyl-4-methoxycarbonyl-7H-pyrrolo[2,3-d]pyrimidine], for which the pest or weed control at 1000 g/ha in test [1] is 10%; in [2], 20%; in test [3], 0%; in test [4], 0%; in the test with Solanum nigrum (SOLNI) [5], 50%; in the test with Setaria faberi (SETFA) [6], 0%. For the same compound, the pest or weed control at 1000 g/ha (in test [7]; in test [8]; in [9]; in test [10]; in the test on Solanum nigrum (SOLNI) [11]; in the test on Setaria faberi (SETFA) [12]) was 0% throughout.

The record behind these values is US20120202690A1, “HERBICIDAL COMPOUNDS” (SYNGENTA LIMITED, priority 2009, published 2012).
